This note sets out measurements from patent US10093631B2, “Bifunctional compounds and use for reducing uric acid levels” (Acquist LLC, priority 2014, dated 2018).

Read-outs that look alike come from different tables or passages of the source.

The target in one experiment is xanthine oxidase (Homo sapiens (Human), UniProt P47989). Briefly: Fluorescence-based xanthine oxidase inhibition assay. Type of experiment: biochemical.
The target in a further experiment is URAT1 (SLC22A12) (Homo sapiens (Human), UniProt Q96S37). Briefly: URAT1 (SLC22A12) cellular uptake assay, 3H-orotate transport in stably transfected URAT-1/CHO cells. The class given is cell-based.
[1] abbreviates: triplicate, 10 concentrations, read-out: Xanthine Oxidase IC50.
Setting [2] is: URAT-1/CHO cells, 3H-orotate uptake, 7 concentrations 0.01 to 150 μM, read-out: URAT1 IC50.

Chain of URAT1 (SLC22A12) (Q96S37 whole entry): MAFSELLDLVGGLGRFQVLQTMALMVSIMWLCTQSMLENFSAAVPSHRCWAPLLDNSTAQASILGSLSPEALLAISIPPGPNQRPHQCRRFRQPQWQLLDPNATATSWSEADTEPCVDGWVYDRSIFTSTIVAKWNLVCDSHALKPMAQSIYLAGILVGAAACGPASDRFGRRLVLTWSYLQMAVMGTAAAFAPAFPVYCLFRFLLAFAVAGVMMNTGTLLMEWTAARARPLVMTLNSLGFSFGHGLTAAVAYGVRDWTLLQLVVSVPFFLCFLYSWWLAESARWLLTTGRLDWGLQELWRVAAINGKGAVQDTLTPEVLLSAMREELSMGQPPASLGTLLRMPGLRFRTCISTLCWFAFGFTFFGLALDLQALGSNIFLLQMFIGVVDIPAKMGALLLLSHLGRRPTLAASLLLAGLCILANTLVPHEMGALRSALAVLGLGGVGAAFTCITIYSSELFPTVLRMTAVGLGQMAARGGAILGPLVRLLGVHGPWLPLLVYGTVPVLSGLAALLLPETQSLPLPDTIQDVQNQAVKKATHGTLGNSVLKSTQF
Chain of xanthine oxidase (P47989 whole entry, species assumed): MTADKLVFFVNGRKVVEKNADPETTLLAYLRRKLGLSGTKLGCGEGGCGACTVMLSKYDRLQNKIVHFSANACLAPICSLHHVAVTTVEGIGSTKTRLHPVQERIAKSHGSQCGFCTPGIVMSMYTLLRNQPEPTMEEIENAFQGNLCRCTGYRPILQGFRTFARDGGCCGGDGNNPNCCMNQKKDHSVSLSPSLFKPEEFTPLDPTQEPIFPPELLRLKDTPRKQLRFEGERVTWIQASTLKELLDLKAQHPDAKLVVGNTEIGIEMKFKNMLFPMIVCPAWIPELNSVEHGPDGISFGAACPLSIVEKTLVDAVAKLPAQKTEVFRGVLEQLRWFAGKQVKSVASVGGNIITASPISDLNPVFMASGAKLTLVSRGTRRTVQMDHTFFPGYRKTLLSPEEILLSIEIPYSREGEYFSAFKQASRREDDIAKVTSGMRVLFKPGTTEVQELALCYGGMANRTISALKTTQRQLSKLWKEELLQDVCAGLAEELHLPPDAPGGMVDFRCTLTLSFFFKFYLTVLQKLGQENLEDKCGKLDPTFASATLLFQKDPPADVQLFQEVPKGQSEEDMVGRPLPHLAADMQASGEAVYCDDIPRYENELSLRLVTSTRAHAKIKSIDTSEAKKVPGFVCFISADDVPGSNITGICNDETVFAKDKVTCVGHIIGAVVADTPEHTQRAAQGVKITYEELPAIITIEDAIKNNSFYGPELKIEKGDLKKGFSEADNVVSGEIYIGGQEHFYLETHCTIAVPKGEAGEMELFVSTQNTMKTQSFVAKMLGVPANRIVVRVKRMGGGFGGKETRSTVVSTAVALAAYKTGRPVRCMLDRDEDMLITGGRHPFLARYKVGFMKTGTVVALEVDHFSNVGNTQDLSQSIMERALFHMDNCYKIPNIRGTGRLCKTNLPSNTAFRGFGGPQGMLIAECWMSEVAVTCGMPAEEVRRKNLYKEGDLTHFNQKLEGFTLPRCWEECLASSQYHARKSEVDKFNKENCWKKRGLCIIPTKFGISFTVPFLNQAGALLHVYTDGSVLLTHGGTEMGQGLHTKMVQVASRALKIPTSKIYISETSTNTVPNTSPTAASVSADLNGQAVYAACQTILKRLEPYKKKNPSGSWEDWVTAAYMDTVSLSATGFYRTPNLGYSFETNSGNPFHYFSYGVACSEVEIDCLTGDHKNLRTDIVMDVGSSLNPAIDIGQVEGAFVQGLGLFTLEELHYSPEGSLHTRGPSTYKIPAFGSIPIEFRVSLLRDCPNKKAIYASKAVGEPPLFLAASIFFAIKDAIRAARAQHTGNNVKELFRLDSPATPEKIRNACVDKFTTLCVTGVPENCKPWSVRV

Take `O=C(Nc1ccc(F)cc1)c1c(O)[nH]c(=S)[nH]c1=O` [Formula (Ib), N-(4′-fluorophenyl)-1,2,3,4-tetrahydro-6-hydroxy-4-oxo-2-thioxo-5-pyrimidinecarboxamide]: the IC50 against xanthine oxidase and on URAT1 (SLC22A12) was less than 10 µM in each case.
Turning to `O=C(Nc1ccc(O)cc1F)c1c(O)[nH]c(=S)[nH]c1=O` [Formula (Ic), N-(2′-fluoro-4′-hydroxyphenyl)-1,2,3,4-tetrahydro-6-hydroxy-4-oxo-2-thioxo-5-pyrimidinecarboxamide], the IC50 is less than 10 µM at xanthine oxidase, 5.6 µM on xanthine oxidase (setting [1]), less than 10 µM at URAT1 (SLC22A12) and 5.83 µM on URAT1 (SLC22A12) (setting [2]).
On to `O=C(Nc1cc(F)c(O)c(F)c1)c1c(O)[nH]c(=O)[nH]c1=O` [Formula (Ig), N-(3,5-difluoro-4-hydroxyphenyl)-6-hydroxy-2,4-dioxo-1,2,3,4-tetrahydropyrimidine-5-carboxamide], for which the half-inhibitory concentration (IC50) on xanthine oxidase was less than 10 µM; at xanthine oxidase (setting [1]), 1.92 µM; at URAT1 (SLC22A12), less than 10 µM; on URAT1 (SLC22A12) (setting [2]) it was 3.55 µM.
For `O=C(Nc1ccc(O)cc1F)c1c(O)[nH]c(=O)[nH]c1=O` [Formula (Ih), N-(2-fluoro-4-hydroxyphenyl)-6-hydroxy-2,4-dioxo-1,2,3,4-tetrahydropyrimidine-5-carboxamide], the IC50 on xanthine oxidase (setting [1]) came to 5.97 µM; on URAT1 (SLC22A12) (setting [2]), 1.79 µM.
On the same counts, the results for `O=C(Nc1ccncc1)c1c(O)[nH]c(=O)[nH]c1=O` [Formula (Ik), 6-hydroxy-2,4-dioxo-N-(pyridin-4-yl)-1,2,3,4-tetrahydropyrimidine-5-carboxamide] are 14.3 µM and 5.3 µM.
